Reference: patent US9458179B2, “Quinuclidine, 1-azabicyclo[2.2.1]heptane, 1-azabicyclo [3.2.1]octane, and 1-azabicyclo[3.2.2]nonane compounds as alpha-7 nicotinic acetylcholine receptor ligands” (BRISTOL-MYERS SQUIBB COMPANY, priority 2012, dated 2016)

The compounds below were run against T1, α-7 nicotinic ACh receptor ion channel (Rattus norvegicus, UniProt Q05941) (assay: Ca2+-sensitive fluorescence-based FLIPR assay of α7 nicotinic receptor channel function (agonist activity)). Conditions: FLIPR α7-HI (EC50, nM), HEK 293 cells, Ca2+ flux.
T1 construct: expressed in transfected cells
T1 sequence (Q05941 23-502): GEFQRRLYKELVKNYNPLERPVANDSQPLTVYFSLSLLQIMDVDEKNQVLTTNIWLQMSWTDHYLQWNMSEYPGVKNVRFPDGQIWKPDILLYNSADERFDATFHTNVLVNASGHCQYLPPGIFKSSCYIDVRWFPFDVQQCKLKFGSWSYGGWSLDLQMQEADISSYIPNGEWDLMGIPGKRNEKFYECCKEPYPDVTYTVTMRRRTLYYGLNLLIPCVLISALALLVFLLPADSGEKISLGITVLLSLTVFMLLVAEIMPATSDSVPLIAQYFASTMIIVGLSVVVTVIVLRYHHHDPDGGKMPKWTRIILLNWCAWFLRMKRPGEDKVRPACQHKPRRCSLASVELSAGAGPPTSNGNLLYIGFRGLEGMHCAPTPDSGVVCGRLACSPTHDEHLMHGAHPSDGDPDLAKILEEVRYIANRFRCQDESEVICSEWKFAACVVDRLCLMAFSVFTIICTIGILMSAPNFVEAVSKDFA
Assay type: cell-based
Protocol: II) A Ca^2+-Sensitive, Fluorescence-Based Assay α-7 for Nicotinic Acetylcholine Receptor Channel Function in Mammalian Cells (“FLIPR”).
Lead compounds are evaluated for agonist activity at α-7, α3β4, α4αβ2, and α1β1δ1ε sub-types of nicotinic ACh receptor ion channels expressed in mammalian HEK 293 cells. Agonist potency and efficacy values are determined from kinetic fluorescence Ca^2+ influx measurements made using a 384 well FLIPR (Fluorescence Image Plate Reader). […] In this assay, channel expressing HEK cell lines seeded in 384 well assay plates are loaded with a membrane permeant fluorescent Ca^2+ indicator dye, whose 510 nm green emission signal increases in response to elevation of intracellular Ca^2+ concentration. The basal fluorescence from the cells is monitored in real time, followed by the acute addition of test compounds.
Reagents: The acetomethoxy (AM) ester of the Ca^2+ indicator dye Fluo-4 was obtained from InVitrogen, (Carlsbad, Calif.). Acetylcholine and all buffer constituents were purchased from Sigma Chemical Company, St. Louis, Mo. G418 and Minimal Essential Medium were purchased from InVitrogen Life Technologies, Carlsbad, Calif. Fetal bovine serum was purchased from (InVitrogen, Carlsbad, Calif.).
HEK-293 cells were grown in Minimal Essential Medium containing 10% (v/v) fetal bovine serum at 37° C. in a 5% CO2 incubator. HEK-293 cells stably expressing the ion channels were grown in the same medium with the addition of 500 μg/ml G418.
HEK-293 cells expressing the ion channels of interest were plated in 384 well, black-walled, clear-bottomed, poly-D-lysine coated plates at a density of ˜20,000 cells/well in 20 μl of Minimal Essential Medium containing 10% (v/v) fetal bovine serum and incubated for 2 days at 29° C. in a 5% CO2 incubator. Prior to assay, cells were loaded with the Fluo-4 AM ester. […] Dye loading was allowed to proceed for 90 minutes at room temperature at which time the dye loading solution was removed and replaced with 40 μl/well of Hanks buffer. Cells loaded with dye were loaded onto a FLIPR384 (Molecular Devices, Sunnyvale, Calif.). […] Emission was filtered using a 540+/−30 nm bandpass filter. For evaluation of the effects of test compounds using the Ca^2+ flux assay, compounds to be tested were provided in assay ready plates. For nicotinic receptor ion channel expressing cells, the assay was initiated by the addition of 20 μl/well of Hanks buffer containing test compounds. For all assays, data were collected at 1 Hz for 10 seconds (baseline), at which time the compound containing stimulus buffers are added, and further measurements collected at 0.33 Hz for 3 min.
The statistical robustness of the nicotinic receptor Ca^2+ flux assays is determined from blanks and totals wells. […] The raw fluorescence units data files generated on the FLIPR plate reader are automatically exported and processed by in-house data analysis tools. The reduced percent activation data for each concentration of test compound are fit using MathIQ fitting engine (ID Business Solutions Limited, Surrey, UK). Data were analyzed by fitting maximum amplitudes of change in fluorescence, for Ca^2+ flux for a given condition of test compound. […] Test compound efficacy values (Ymax values) are expressed relative to a maximal response to acetylcholine in the total wells.
In the case of `c1csc(NC2=NCC3(CN4CCC3CC4)N2)n1` (stereo not shown) [Example 9], the EC50 is reported as 1060 nM. `CN1C(Nc2ccc3ccccc3n2)=NCC12CN1CCC2CC1` (stereo not shown) [Example 40] gave an EC50 of 942 nM. Compound `Clc1cnc(NC2=NCC3(CN4CCC3CC4)N2)nc1` (stereo not shown) [Example 17] has an EC50 of 286 nM.

Same assay, conditions: FLIPR α7-HI (EC50, nM), HEK 293 cells, Ca2+ flux; Table 1, activity class
In the case of `Clc1ccc2c(NC3=NCC4(CN5CCC4CC5)N3)ncnn12` (stereo not shown) [Example 65, N-(7-Chloropyrrolo[1,2-f][1,2,4]triazin-4-yl)-3,5-dihydro-1′-azaspiro[imidazole-4,3′-bicyclo[2.2.2]octan]-2-amine], the EC50 is reported as 100 to 1000 nM. `c1csc(NC2=NCC3(CN4CCC3CC4)N2)n1` (stereo not shown) [Example 9] showed an EC50 of 1000 to 100000 nM. `c1ccc2sc(NC3=NCC4(CN5CCC4CC5)N3)nc2c1` (stereo not shown) [Example 11] showed an EC50 of less than 100 nM. `CN1C(Nc2ncc(Cl)cn2)=NCC12CN1CCC2CC1` (stereo not shown) [Example 18] showed an EC50 of 100 to 1000 nM. Work on `Cc1nc(C)nc(NC2=NCC3(CN4CCC3CC4)N2)n1` (stereo not shown) [Example 43] yielded an EC50 of 1000 to 100000 nM. `Fc1cccc2sc(NC3=NCC4(CN5CCC4CC5)N3)nc12` (stereo not shown) [Example 55] was tested, and the EC50 was less than 100 nM. `c1ccn2cc(NC3=NCC4(CN5CCC4CC5)N3)nc2c1` (stereo not shown) [Example 37] showed an EC50 of 1000 to 100000 nM. For `COc1ncnc2sc(NC3=NCC4(CN5CCC4CC5)N3)nc12` (stereo not shown) [Example 38], the EC50 was 1000 to 100000 nM. In the case of `Cc1cnc2nc(NC3=NCC4(CN5CCC4CC5)N3)sc2n1` (stereo not shown) [Example 41], the EC50 is reported as 1000 to 100000 nM. `CN1C(Nc2ccc3ccccc3n2)=NCC12CN1CCC2CC1` (stereo not shown) [Example 40] showed an EC50 of 100 to 1000 nM. `CN1C(Nc2nc3ccc(Br)nc3s2)=NCC12CN1CCC2CC1` (stereo not shown) [Example 50] showed an EC50 of 1000 to 100000 nM. In the case of `c1cn(-c2cc(NC3=NCC4(CN5CCC4CC5)N3)ncn2)cn1` (stereo not shown) [Example 61], the EC50 is reported as 100 to 1000 nM. In the case of `COc1ccc2nc(NC3=NCC4(CN5CCC4CC5)N3C)sc2n1` (stereo not shown) [Example 47], the EC50 is reported as 100 to 1000 nM. With `c1cnc2sc(NC3=NCC4(CN5CCC4CC5)N3)nc2c1` (stereo not shown) [Example 56] the EC50 was less than 100 nM. `c1cnc2sc(NC3=NCC4(CN5CCC4CC5)N3)nc2n1` (stereo not shown) [Example 32, N-[1,3]Thiazolo[4,5-b]pyrazin-2-yl-1′,5′-dihydrospiro[4-azabicyclo[2.2.2]octane-2,4′-imidazol]-2′-amine] was tested, and the EC50 was 100 to 1000 nM. For `Fc1ccc2nc(NC3=NCC4(CN5CCC4CC5)N3)sc2n1` (stereo not shown) [Example 44, N-(5-Fluoro[1,3]thiazolo[5,4-b]pyridin-2-yl)-1′,5′-dihydrospiro[4-azabicyclo[2.2.2]octane-2,4′-imidazol]-2′-amine], the EC50 was 100 to 1000 nM. With `CN1C(Nc2ncc3ccccc3n2)=NCC12CN1CCC2CC1` (stereo not shown) [Example 27] the EC50 was 1000 to 100000 nM. Compound `c1ccc(COc2ccc3nc(NC4=NC5(CN4)CN4CCC5CC4)sc3n2)cc1` (stereo not shown) [Example 39, N-(5-(benzyloxy)[1,3]thiazolo[5,4-b]pyridin-2-yl)-1′,5′-dihydrospiro[4-azabicyclo[2.2.2]octane-2,4′-imidazol]-2′-amine] has an EC50 greater than 1e+06 nM. In the case of `CN1C(Nc2nc3cc(Cl)ccc3o2)=NCC12CN1CCC2CC1` (stereo not shown) [Example 58], the EC50 is reported as 100 to 1000 nM. Work on `CN1C(Nc2nccs2)=NCC12CN1CCC2CC1` (stereo not shown) [Example 10] yielded an EC50 of 1000 to 100000 nM. For `COc1cc(NC2=NCC3(CN4CCC3CC4)N2C)ncn1` (stereo not shown) [Example 21], the EC50 was 100 to 1000 nM. With `CN1C(Nc2nc3ccccc3s2)=NCC12CN1CCC2CC1` (stereo not shown) [Example 12] the EC50 was 100 to 1000 nM. For `Clc1cnc(NC2=NCC3(CN4CCC3CC4)N2)nc1` (stereo not shown) [Example 17], the EC50 was 100 to 1000 nM. Compound `CN1C(Nc2ncc(-c3ccccc3)s2)=NCC12CN1CCC2CC1` (stereo not shown) [Example 5] has an EC50 of 1000 to 100000 nM. Work on `COc1ncc2nc(NC3=NCC4(CN5CCC4CC5)N3)sc2n1` (stereo not shown) [Example 19, N-(5-Methoxy[1,3]thiazolo[5,4-d]pyrimidin-2-yl)-1′,5′-dihydrospiro[4-azabicyclo[2.2.2]octane-2,4′-imidazol]-2′-amine] yielded an EC50 of 1000 to 100000 nM.
